Measurements as given in ChEMBL document CHEMBL3217729, “Sangamides, a new class of cyclophilin-inhibiting host-targeted antivirals for treatment of HCV infection” (Medchemcomm, 2012).
Activity calls are given as the source filed them. No cut-off for these calls is given here.

How the values were obtained:
[1] = target: T1, ATP-binding cassette sub-family C member 2 (Homo sapiens, UniProt Q92887); assay: Inhibition of ATPase activity of MRP2 (unknown origin) expressed in membrane assessed as amount of phosphate released using probenecid as substrate up to 50 uM by molybdenum blue assay
[2] = target: ATP-dependent translocase ABCB1 (Homo sapiens, UniProt P08183); assay: Inhibition of MDR1 (unknown origin) expressed in MDCK1 cells assessed as reduction of loperamide substrate permeability up to 50 uM after 60 mins by LC-MS/MS analysis; format: ADME, cell-based; conditions: mdck1, 1 h
[3] = Drug level in CD-1 mouse blood at 5 mg/kg, po administered as single dose measured for 24 hrs post-dose by LC-MS/MS analysis; format: ADME, organism-based; parameters: dose 5 mg/kg, route oral; conditions: read-out: Drug uptake
Liver = assay: Drug level in CD-1 mouse liver at 5 mg/kg, po administered as single dose measured per gm of tissue for 24 hrs post-dose by LC-MS/MS analysis; format: ADME, organism-based; parameters: dose 5 mg/kg, route oral; conditions: in vivo
Hepatitis C virus [4] = assay: Antiviral activity against Hepatitis C virus genotype 1b I389luc-ubi-neo/NS3-3'/5.1 subgenomic replicon infected in human Huh5-2 cells after 4 days by luciferase assay; format: functional, cell-based, Hepacivirus hominis; conditions: Huh-5-2, 96 h
[5] = Cytostatic activity against human Huh5-2 cells assessed as decrease in cell proliferation after 3 days by MTS method; format: ADME, cell-based, Huh-5-2
[6] = Selectivity index, ratio of CC50 for human Huh5-2 cells to EC50 for Hepatitis C virus genotype 1b I389luc-ubi-neo/NS3-3'/5.1 subgenomic replicon infected in human Huh5-2 cells; format: toxicity, cell-based, Huh-5-2; conditions: read-out: Ratio CC50/EC50
[7] = target: T2, Peptidyl-prolyl cis-trans isomerase A (Homo sapiens, UniProt P62937); assay: Inhibition of recombinant GST-tagged CypA (unknown origin)/HCV Con1 NS5A-His interaction after 16 hrs by ELISA
[8] = target: T2, Peptidyl-prolyl cis-trans isomerase A; assay: Inhibition of PPIase activity of recombinant CypA (unknown origin) assessed as chymotrypsin-mediated N-succinyl-Ala-Ala-Pro-Phe-p-nitroanilide hydrolysis after 1 hr by spectrophotometric analysis
[9] = Solubility of the compound in phosphate buffered saline at pH 7.4 after 4 hrs by LC-MS/MS analysis
[10] = Half life in human liver microsomes at 1 uM by LC-MS/MS analysis; format: ADME
[11] = Half life in human hepatocytes at 1 uM by LC-MS/MS analysis; format: ADME, cell-based, Hepatocyte
Hepatitis C virus [12] = assay: Antiviral activity against Hepatitis C virus genotype 1a H77 infected in human Huh7 cells assessed as decrease in subgenomic RNA level after 72 hrs by RT-PCR analysis; format: functional, cell-based, Hepacivirus hominis; conditions: genotype 1a H77, Huh-7, 72 h
Hepatitis C virus [13] = assay: Antiviral activity against Hepatitis C virus genotype 1b Con1 infected in human Huh7 cells assessed as decrease in subgenomic RNA level after 72 hrs by RT-PCR analysis; format: functional, cell-based, Hepacivirus hominis; conditions: genotype 1b Con1, Huh-7, 72 h
Hepatitis C virus [14] = assay: Antiviral activity against Hepatitis C virus genotype 2a JFH-1 infected in human Huh7 cells assessed as decrease in subgenomic RNA level after 72 hrs by RT-PCR analysis; format: functional, cell-based, Hepacivirus hominis; conditions: genotype 2a JFH-1, Huh-7, 72 h
PBMC = assay: Immunosuppressive activity in human PBMC isolated from two individuals assessed as inhibition of proliferation using [3H]thymidine by mixed lymphocyte reaction assay; format: cell-based
[15] = Ratio of drug level in liver to blood in CD-1 mouse at 5 mg/kg, po administered as single dose measured for 24 hrs post-dose by LC-MS/MS analysis; format: ADME, organism-based; parameters: dose 5 mg/kg, route oral; conditions: liver and blood
Hepatitis C virus [16] = assay: Antiviral activity against Hepatitis C virus genotype 1b Con1 infected in human Huh7 cells assessed as viral rebound by measuring replicon RNA content at 0.5 to 1 uM after drug removal by RT-qPCR analysis; format: functional, cell-based; conditions: Hepacivirus hominis, Huh-7
in vitro = conditions: mouse, liver microsomes
Description: Half life in mouse liver microsomes at 1 uM by LC-MS/MS analysis

physchem = conditions: n-octanol/potassium phosphate buffer, pH 7.4
[17] = Percentage bound in human plasma at 1 uM after 5 hrs by dialysis chamber method; format: ADME, cell-free; conditions: read-out: PPB (converted)
[18] = target: T1, ATP-binding cassette sub-family C member 2; assay: Inhibition of ATPase activity of MRP2 (unknown origin) expressed in membrane assessed as amount of phosphate released using probenecid as substrate at 14 uM by molybdenum blue assay

T2 sequence (P62937 whole entry): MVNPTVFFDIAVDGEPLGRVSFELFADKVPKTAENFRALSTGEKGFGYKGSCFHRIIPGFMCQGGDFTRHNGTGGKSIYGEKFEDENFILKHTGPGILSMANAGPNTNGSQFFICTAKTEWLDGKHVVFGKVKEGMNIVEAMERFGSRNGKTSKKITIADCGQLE
T1 sequence (Q92887 whole entry): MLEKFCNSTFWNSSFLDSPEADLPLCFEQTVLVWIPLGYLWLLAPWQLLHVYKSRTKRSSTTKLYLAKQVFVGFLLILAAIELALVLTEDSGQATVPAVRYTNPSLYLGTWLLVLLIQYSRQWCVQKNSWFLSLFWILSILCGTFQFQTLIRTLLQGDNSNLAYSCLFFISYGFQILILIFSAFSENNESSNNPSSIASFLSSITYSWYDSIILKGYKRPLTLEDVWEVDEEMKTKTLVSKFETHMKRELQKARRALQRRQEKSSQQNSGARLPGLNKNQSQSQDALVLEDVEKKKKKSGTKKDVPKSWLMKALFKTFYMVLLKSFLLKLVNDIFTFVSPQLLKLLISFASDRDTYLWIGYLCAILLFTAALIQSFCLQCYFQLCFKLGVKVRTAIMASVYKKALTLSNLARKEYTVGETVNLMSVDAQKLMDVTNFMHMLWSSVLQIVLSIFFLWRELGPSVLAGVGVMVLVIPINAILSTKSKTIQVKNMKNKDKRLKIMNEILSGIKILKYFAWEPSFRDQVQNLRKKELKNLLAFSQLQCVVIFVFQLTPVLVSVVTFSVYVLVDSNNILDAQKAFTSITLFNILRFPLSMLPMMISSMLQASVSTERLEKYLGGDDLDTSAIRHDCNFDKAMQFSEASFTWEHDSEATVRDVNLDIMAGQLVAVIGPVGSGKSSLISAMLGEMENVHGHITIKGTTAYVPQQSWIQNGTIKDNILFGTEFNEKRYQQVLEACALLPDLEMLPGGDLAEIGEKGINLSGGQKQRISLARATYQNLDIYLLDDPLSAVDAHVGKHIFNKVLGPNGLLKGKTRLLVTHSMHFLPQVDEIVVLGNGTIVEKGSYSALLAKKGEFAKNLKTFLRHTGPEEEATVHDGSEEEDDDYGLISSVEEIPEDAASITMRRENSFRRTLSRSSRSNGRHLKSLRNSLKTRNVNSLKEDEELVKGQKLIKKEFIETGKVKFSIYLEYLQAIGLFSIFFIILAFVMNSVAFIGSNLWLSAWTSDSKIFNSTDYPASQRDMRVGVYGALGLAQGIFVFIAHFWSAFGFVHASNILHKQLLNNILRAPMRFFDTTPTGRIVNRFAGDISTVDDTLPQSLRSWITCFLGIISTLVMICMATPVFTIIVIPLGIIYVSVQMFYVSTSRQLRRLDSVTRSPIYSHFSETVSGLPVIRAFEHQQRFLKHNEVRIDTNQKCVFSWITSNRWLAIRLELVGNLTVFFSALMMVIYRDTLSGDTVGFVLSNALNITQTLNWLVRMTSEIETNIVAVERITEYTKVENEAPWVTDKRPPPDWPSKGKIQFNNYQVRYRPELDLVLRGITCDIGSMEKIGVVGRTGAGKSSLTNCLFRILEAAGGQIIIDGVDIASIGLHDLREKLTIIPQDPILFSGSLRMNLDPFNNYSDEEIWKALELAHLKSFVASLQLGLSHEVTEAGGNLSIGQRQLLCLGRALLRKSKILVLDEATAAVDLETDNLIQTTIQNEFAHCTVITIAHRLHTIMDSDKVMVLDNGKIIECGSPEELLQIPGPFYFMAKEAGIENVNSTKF
Chain of ATP-dependent translocase ABCB1 (P08183 whole entry): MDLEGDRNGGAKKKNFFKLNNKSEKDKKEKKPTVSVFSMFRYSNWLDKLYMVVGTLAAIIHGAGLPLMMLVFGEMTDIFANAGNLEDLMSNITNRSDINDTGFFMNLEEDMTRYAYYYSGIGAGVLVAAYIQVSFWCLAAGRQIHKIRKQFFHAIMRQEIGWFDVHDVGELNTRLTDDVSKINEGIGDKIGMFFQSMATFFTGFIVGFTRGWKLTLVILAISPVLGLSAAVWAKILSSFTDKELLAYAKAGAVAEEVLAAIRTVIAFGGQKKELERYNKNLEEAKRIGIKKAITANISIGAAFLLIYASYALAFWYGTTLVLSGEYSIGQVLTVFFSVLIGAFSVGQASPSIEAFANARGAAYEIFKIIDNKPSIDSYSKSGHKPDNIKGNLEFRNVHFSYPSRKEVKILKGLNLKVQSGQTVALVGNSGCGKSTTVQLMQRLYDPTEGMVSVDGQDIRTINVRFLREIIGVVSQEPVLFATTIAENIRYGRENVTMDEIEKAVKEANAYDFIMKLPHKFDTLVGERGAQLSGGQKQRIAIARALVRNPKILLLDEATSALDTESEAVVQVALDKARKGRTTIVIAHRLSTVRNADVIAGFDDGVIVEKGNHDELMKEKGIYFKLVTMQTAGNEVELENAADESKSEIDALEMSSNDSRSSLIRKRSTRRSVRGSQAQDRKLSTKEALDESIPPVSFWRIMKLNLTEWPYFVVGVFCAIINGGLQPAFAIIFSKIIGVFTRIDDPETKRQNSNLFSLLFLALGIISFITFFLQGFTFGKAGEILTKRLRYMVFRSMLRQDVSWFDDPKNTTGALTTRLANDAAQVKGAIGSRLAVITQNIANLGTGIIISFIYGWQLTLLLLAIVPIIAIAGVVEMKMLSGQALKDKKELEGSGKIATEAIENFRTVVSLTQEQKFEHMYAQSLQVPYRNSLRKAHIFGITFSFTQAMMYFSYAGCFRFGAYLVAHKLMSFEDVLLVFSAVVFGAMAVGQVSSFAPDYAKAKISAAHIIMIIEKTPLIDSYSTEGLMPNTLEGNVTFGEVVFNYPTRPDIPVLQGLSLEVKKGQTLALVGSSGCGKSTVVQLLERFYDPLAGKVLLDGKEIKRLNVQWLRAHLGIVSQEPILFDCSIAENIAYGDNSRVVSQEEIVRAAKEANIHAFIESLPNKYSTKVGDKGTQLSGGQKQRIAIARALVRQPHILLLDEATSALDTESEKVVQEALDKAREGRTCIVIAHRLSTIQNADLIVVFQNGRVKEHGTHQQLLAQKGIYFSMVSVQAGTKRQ

Compound	EC50 (Hepatitis C virus [4]) [µM]	EC90 (Hepatitis C virus [4]) [µM]	CC50 at 72 h [5] [µM]	selectivity ratio [6]	IC50 [7] [µM]	IC50 [8] [µM]	solubility at 4 h [9] [µM]	half-life at 1 µM [10] [min]	half-life at 1 µM [11] [min]	EC50 (Hepatitis C virus [12]) [µM]	EC50 (Hepatitis C virus [13]) [µM]	EC50 (Hepatitis C virus [14]) [µM]	IC50 (PBMC) [µM]	half-life at 1 µM (in vitro) [min]	logD at 1 h (physchem)	further results
CC(=O)CC[C@H]1C(=O)N[C@@H](C(C)C)C(=O)N[C@@H](Cc2cccc(O)c2)C(=O)N2CCCC(N2)C(=O)O[C@H](/C(C)=C/C=C/C(=O)N2CCCCO2)C/C=C/C=C/[C@H](O)[C@H](C)[C@H]1O (stereo partly drawn)	0.125	0.69	> 100	> 800	0.36	0.0027	> 100	10.6	220	0.063	0.058	0.089	1.45	5.8	2.6	inhibition (INH) [1]: Not Active; inhibition (INH) [2]: Not Active; concentration at 24 h [3]: 20 ng/mL; Drug uptake (Liver): 20 ng; Kp at 24 h [15]: 3; Activity (Hepatitis C virus [16]): Active
CON(C)C(=O)/C=C/C=C(\C)[C@@H]1C/C=C/C=C/[C@H](O)[C@H](C)[C@@H](O)[C@@H](CCC(C)=O)C(=O)N[C@@H](C(C)C)C(=O)N[C@@H](Cc2cccc(O)c2)C(=O)N2CCCC(N2)C(=O)O1 (stereo partly drawn)	0.162	0.92	> 100	> 617	0.2	0.0011	> 100	26.5	> 240	0.156	0.128	0.247	1.06	17.5	2.3	fraction unbound at 5 h, 1 µM [17]: 0.73
CCc1oc2ccccc2c1C(=O)c1cc(Br)c(O)c(Br)c1 [BENZBROMARONE]																inhibition (INH) [18]: Active
